Like-named read-outs stand apart in the source and are kept apart here.
Key:
Experiment in all cases: whole plant or invertebrate
Type in all cases: in vivo
[1] = system: western flower thrip (Frankliniella occidentalis Pergande)
In short: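 Compounds in 10% acetone/90% water with 300 ppm non-ionic surfactant were sprayed onto 5- to 7-day-old bean plants, 3 replicates. After 1 h drying, 22–27 adult thrips were added per unit. Units were held 7 days at 25° C, 45–55% RH, assessing contact and/or systemic control.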

[2] = system: potato leafhopper (Empoasca fabae Harris)
In short: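 Bean plants (5–6 days old, one primary leaf excised) were sprayed with 1 mL of compound in 10% acetone/water with 300 ppm X-77 surfactant, 3 replicates. After drying for 1 h, each unit was infested with 5 adult leafhoppers. Units were held 6 days at 19–21 °C and 50–70% RH.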

[3] = system: silverleaf whitefly (Bemisia argentifolii Bellows and Perring)
In short: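 Whitefly-egg-infested 12–14-day-old cotton plants sprayed with compound in 10% acetone/90% water plus 300 ppm non-ionic surfactant, in triplicate. Plants then held 13 days at 28 °C and 50–70% relative humidity before mortality assessment.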

[4] = system: green peach aphid (Myzus persicae Sulzer)
In short: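 Compounds formulated in 10% acetone/water with 300 ppm X-77 surfactant were atomized onto aphid-infested radish seedlings, with three replicates per treatment. Infestation was 30–40 aphids transferred on excised leaf pieces, covering contact and systemic exposure. Test units stayed 6 days in a growth chamber at 19–21 °C and 50–70% relative humidity.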

[5] = system: cotton melon aphid (Aphis gossypii Glover)
In short: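 Cotton plants (6–7 days old) pre-infested with 30–40 aphids by cut-leaf method, sprayed with compound (ppm) in 10% acetone/90% water with 300 ppm X-77 surfactant, three replicates. Held 6 days at 19–21 °C, 50–70% RH; contact and/or systemic control assessed.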

[6] = system: corn planthopper (Peregrines maidis)
In short: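 Compounds in 10% acetone/90% water with 300 ppm X-77 surfactant sprayed (3 replications) onto 3- to 4-day-old corn plants, dried 1 h, then infested with 10–20 corn planthopper nymphs aged 18–20 days. Held 6 days at 19-21° C. and 50-70% relative humidity; contact and/or systemic control assessed.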

[7] = rate 1 ppm, single compound, spray, 7 days
[8] = rate 500 ppm, single compound, spray, 7 days

Structure (SMILES): CNC(=O)O/N=C(\SC)C(=O)N(C)C [Oxamyl]
- % mortality (obs) [1, 7]: 30%
- % mortality (obs) ([1]; rate 50 ppm, single compound, spray, 7 days): 40%
- % mortality (obs) [1, 8]: 100%
- % mortality (obs) ([2]; rate 0.1 ppm, alone): 20%
- % mortality (obs) ([2]; rate 2 ppm, alone): 20%
- % mortality (obs) ([2]; rate 100 ppm, alone): 100%
- % mortality (obs) ([3]; Table 2B, rate 0.1 ppm): 2%
- % mortality (obs) ([3]; Table 2B, rate 0.3 ppm): 0%
- % mortality (obs) ([3]; Table 2B, rate 1 ppm): 1%
- % mortality (obs) ([4]; Green Peach Aphid, rate 40 ppm): 8%
- % mortality (obs) ([4]; Green Peach Aphid, rate 70 ppm): 18%
- % mortality (obs) ([4]; Green Peach Aphid, rate 100 ppm): 35%
- % mortality (obs) ([5]; rate 1 ppm): 29%
- % mortality (obs) ([5]; rate 10 ppm): 37%
- % mortality (obs) ([5]; rate 1000 ppm): 100%
- % mortality (obs) ([6]; Corn Plant Hopper, rate 0.08 ppm): 2%
- % mortality (obs) ([6]; Corn Plant Hopper, rate 0.16 ppm): 5%
- % mortality (obs) ([6]; Corn Plant Hopper, rate 0.2 ppm): 6%

Structure (SMILES): COC(=O)N(C(=O)N1CO[C@@]2(C(=O)OC)Cc3cc(Cl)ccc3C2=N1)c1ccc(OC(F)(F)F)cc1 [Indoxacarb]
- % mortality (obs) [1, 7]: 50%
- % mortality (obs) [1, 8]: 50%
- % mortality (obs) ([1]; rate 3000 ppm, single compound, spray, 7 days): 50%
- % mortality (obs) ([2]; rate 0.5 ppm, alone): 33%
- % mortality (obs) ([2]; rate 1 ppm, alone): 20%
- % mortality (obs) ([2]; rate 2 ppm, alone): 27%
- % mortality (obs) ([3]; Table 2B, rate 1 ppm): 0%
- % mortality (obs) ([3]; Table 2B, rate 3 ppm): 0%
- % mortality (obs) ([3]; Table 2B, rate 10 ppm): 0%
- % mortality (obs) ([4]; Green Peach Aphid, rate 10 ppm): 9%
- % mortality (obs) ([4]; Green Peach Aphid, rate 20 ppm): 7%
- % mortality (obs) ([4]; Green Peach Aphid, rate 30 ppm): 8%
- % mortality (obs) ([5]; rate 10 ppm): 16%
- % mortality (obs) ([5]; rate 20 ppm): 28%
- % mortality (obs) ([5]; rate 30 ppm): 34%
- % mortality (obs) ([6]; Corn Plant Hopper, rate 50 ppm): 3%
- % mortality (obs) ([6]; Corn Plant Hopper, rate 500 ppm): 4%
- % mortality (obs) ([6]; Corn Plant Hopper, rate 3000 ppm): 18%

Structure (SMILES): CNC(=O)c1cc(Cl)cc(C)c1NC(=O)c1cc(Br)nn1-c1ncccc1Cl [Compound 1, 3-bromo-N-[4-chloro-2-methyl-6-[(methylamino)carbonyl]phenyl]-1-(3-chloro-2-pyridinyl)-1H-pyrazole-5-carboxamide]
- mortality at 10 ppm ([1]; Frankliniella occidentalis, 168 h, rate 10 ppm, single compound, spray, 7 days, read-out: % mortality (obs)): 44%
- mortality at 50 ppm ([1]; Frankliniella occidentalis, 168 h, rate 50 ppm, single compound, spray, 7 days, read-out: % mortality (obs)): 49%
- mortality at 100 ppm ([1]; Frankliniella occidentalis, 168 h, rate 100 ppm, single compound, spray, 7 days, read-out: % mortality (obs)): 46%
- mortality at 8 ppm ([1]; Frankliniella occidentalis, Table 3A, Compound 1 8 ppm, read-out: % Mortality (observed)): 3%
- mortality at 25 ppm ([1]; Frankliniella occidentalis, Table 3A, Compound 1 25 ppm, read-out: % Mortality (observed)): 17%
- mortality at 81 ppm ([1]; Frankliniella occidentalis, Table 3A, Compound 1 81 ppm, read-out: % Mortality (observed)): 30%
- mortality at 0.4 ppm ([2]; Empoasca fabae, Table 4A, Compound 1 0.4 ppm, read-out: % Mortality (observed)): 0%
- mortality at 1.4 ppm ([2]; Empoasca fabae, Table 4A, Compound 1 1.4 ppm, read-out: % Mortality (observed)): 0%
- mortality at 4.6 ppm ([2]; Empoasca fabae, Table 4A, Compound 1 4.6 ppm, read-out: % Mortality (observed)): 0%
- mortality at 4 ppm ([2]; Empoasca fabae, rate 4 ppm, alone, read-out: % mortality (obs)): 23%
- mortality at 14 ppm ([2]; Empoasca fabae, rate 14 ppm, alone, read-out: % mortality (obs)): 37%
- mortality at 50 ppm ([2]; Empoasca fabae, rate 50 ppm, alone, read-out: % mortality (obs)): 54%
- mortality at 8 ppm ([3]; Bemisia argentifolii, in Gossypium hirsutum, Table 2A, Compound 1 8 ppm, read-out: % Mortality (observed)): 4%
- mortality at 10 ppm ([3]; Bemisia argentifolii, in Gossypium hirsutum, Table 2A, Compound 1 10 ppm, read-out: % Mortality (observed)): 1%
- mortality at 6 ppm ([3]; Bemisia argentifolii, in Gossypium hirsutum, Table 2B, rate 6 ppm, read-out: % mortality (obs)): 3%
- mortality at 8 ppm ([3]; Bemisia argentifolii, in Gossypium hirsutum, Table 2B, rate 8 ppm, read-out: % mortality (obs)): 3%
- mortality at 10 ppm ([3]; Bemisia argentifolii, in Gossypium hirsutum, Table 2B, rate 10 ppm, read-out: % mortality (obs)): 5%
- mortality at 10 ppm ([4]; Myzus persicae, in Raphanus sativus, Green Peach Aphid, rate 10 ppm, read-out: % mortality (obs)): 24%
- mortality at 20 ppm ([4]; Myzus persicae, in Raphanus sativus, Green Peach Aphid, rate 20 ppm, read-out: % mortality (obs)): 35%
- mortality at 40 ppm ([4]; Myzus persicae, in Raphanus sativus, Green Peach Aphid, rate 40 ppm, read-out: % mortality (obs)): 36%
- mortality at 2.1 ppm ([4]; Myzus persicae, in Raphanus sativus, Table 7A, Compound 1 2.1 ppm, read-out: % Mortality (observed)): 5%
- mortality at 3.9 ppm ([4]; Myzus persicae, in Raphanus sativus, Table 7A, Compound 1 3.9 ppm, read-out: % Mortality (observed)): 2%
- mortality at […] ([4]; Myzus persicae, in Raphanus sativus, Table 7A, Compound 1 7.5 ppm, read-out: % Mortality (observed)): 6%
- mortality at 0.8 ppm ([5]; Aphis gossypii, Table 6A, Compound 1 0.8 ppm, read-out: % Mortality (observed)): 12%
- mortality at […] ([5]; Aphis gossypii, Table 6A, Compound 1 4.5 ppm, read-out: % Mortality (observed)): 32%
- mortality at 25 ppm ([5]; Aphis gossypii, Table 6A, Compound 1 25 ppm, read-out: % Mortality (observed)): 23%
- mortality at 4 ppm ([5]; Aphis gossypii, rate 4 ppm, read-out: % mortality (obs)): 25%
- mortality at 20 ppm ([5]; Aphis gossypii, rate 20 ppm, read-out: % mortality (obs)): 41%
- mortality at 100 ppm ([5]; Aphis gossypii, rate 100 ppm, read-out: % mortality (obs)): 49%
- mortality at 20 ppm ([6]; Corn Plant Hopper, rate 20 ppm, read-out: % mortality (obs)): 15%
- mortality at 100 ppm ([6]; Corn Plant Hopper, rate 100 ppm, read-out: % mortality (obs)): 19%
- mortality at 500 ppm ([6]; Corn Plant Hopper, rate 500 ppm, read-out: % mortality (obs)): 28%
- mortality at 5 ppm ([6]; Table 5A, Compound 1 5 ppm, read-out: % Mortality (observed)): 6%
- mortality at 50 ppm ([6]; Table 5A, Compound 1 50 ppm, read-out: % Mortality (observed)): 9%
- mortality at 150 ppm ([6]; Table 5A, Compound 1 150 ppm, read-out: % Mortality (observed)): 28%

Source: patent publication US8937089B2, “Synergistic mixtures of anthranilamide invertebrate pest control agents” (priority 2004, dated 2015)
